Tests used:
Format in all cases: cell-based
[1] = tested on: LX-2 cells; test: Western blot of liver-fibrosis-associated proteins in LX-2 cells and HSC-T6 cells; settings: 20 μM
Description: The total protein concentration in cell and liver tissue lysates was determined using a BCA kit (Beyotime Biotechnology, P0009). Following immune precipitation with appropriate antibodies overnight at 4 °C and incubation with Protein A/G Plus-agarose (Santa Cruz Biotechnology, sc-2003), immunocomplexes or lysates were subjected to SDS-PAGE gel electrophoresis and transferred onto PVDF membranes. Target proteins were detected using specific primary antibodies and an appropriate secondary antibody, with electrochemiluminescence carried out according to the manufacturer’s instructions with a Tanon 5200 imaging system (Shanghai, China). The internal control utilized was GADPH.
(A–E) The LX-2 cells underwent a 24 h treatment of 2 ng·mL^−1 TGFβ1, with or without varying concentrations of candidate compounds, following FBS starvation. […] GAPDH/GAPDH was used as the loading control. The mean ± SD values were obtained from three independent assays. […] ANOVA was followed by Tukey’s test for statistical analysis.

[2] = biological target: T1, LXRα (Homo sapiens, UniProt Q13133); test: NR selectivity one-hybrid assay in HEK-293T cells (LXRα); settings: activated by GW3965
T1 construct: a fusion plasmid of Gal4 DBD-NR LBD (comprising RXRα, RXRβ, RXRγ, PPARα, PPARβ, PPARγ, LXRα, LXRβ, GPBAR, and PXR); expressed in transfected cells; host or cells: HEK-293T
T1 sequence (Q13133 209-447 limits assumed): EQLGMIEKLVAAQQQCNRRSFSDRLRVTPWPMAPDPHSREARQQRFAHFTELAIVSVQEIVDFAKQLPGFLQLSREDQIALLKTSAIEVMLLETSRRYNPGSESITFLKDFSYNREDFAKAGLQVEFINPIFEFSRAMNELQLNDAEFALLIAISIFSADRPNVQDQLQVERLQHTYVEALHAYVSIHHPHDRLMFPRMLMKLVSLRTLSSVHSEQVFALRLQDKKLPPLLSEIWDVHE
Description: (§1) To assess the compound’s specificity, the mammalian one-hybrid assay was conducted. In this assay, HEK-293T cells were co-transfected with a fusion plasmid of Gal4 DBD-NR LBD (comprising RXRα, RXRβ, RXRγ, PPARα, PPARβ, PPARγ, LXRα, LXRβ, GPBAR, and PXR) and the UAS-TK-Luc reporter, followed by treatment with various concentrations of the compound. The positive control consisted of the corresponding nuclear receptor agonist, and the concentration used in the experiment was set to the EC50 of the agonist.
(§2) Figure 3 Compound 10b selectively antagonized FXR. The impact of compound 10b on various NRs was evaluated using a […] one-hybrid assay in HEK-293T cells. The cells were transiently co-transfected with a fusion plasmid of Gal4 DBD-NR-LBD, which included PPARα, PPARβ, PPARγ, RXRα, RXRβ, RXRγ, LXRα, LXRβ, GPBAR, PXR, and FXR, in combination with the UAS-TK-Luc reporter. […] The values are expressed as the means ± SE of three independent experiments. *: p < 0.05 vs. RA (relative agonist).

[3] = biological target: T2, PPARα (Homo sapiens, UniProt Q07869); test: NR selectivity one-hybrid assay in HEK-293T cells (PPARα); settings: activated by fenofibrate
T2 construct: a fusion plasmid of Gal4 DBD-NR LBD (comprising RXRα, RXRβ, RXRγ, PPARα, PPARβ, PPARγ, LXRα, LXRβ, GPBAR, and PXR); expressed in transfected cells; host or cells: HEK-293T
T2 sequence (Q07869 239-466 limits assumed): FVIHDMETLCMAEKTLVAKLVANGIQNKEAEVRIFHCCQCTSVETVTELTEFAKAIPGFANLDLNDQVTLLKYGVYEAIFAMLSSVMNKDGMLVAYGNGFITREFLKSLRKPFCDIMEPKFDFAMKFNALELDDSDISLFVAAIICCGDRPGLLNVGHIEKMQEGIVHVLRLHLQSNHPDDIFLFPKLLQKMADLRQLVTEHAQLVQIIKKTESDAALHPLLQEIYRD
Description: as §1, §2

[4] = biological target: T3, FXR (Homo sapiens, UniProt Q96RI1); test: NR selectivity one-hybrid assay in HEK-293T cells (FXR); settings: FXR agonist CDCA (50 μM)
T3 construct: a fusion plasmid of Gal4 DBD-NR-LBD, which included PPARα, PPARβ, PPARγ, RXRα, RXRβ, RXRγ, LXRα, LXRβ, GPBAR, PXR, and FXR; expressed in transfected cells; host or cells: HEK-293T
T3 sequence (Q96RI1 262-486 limits assumed): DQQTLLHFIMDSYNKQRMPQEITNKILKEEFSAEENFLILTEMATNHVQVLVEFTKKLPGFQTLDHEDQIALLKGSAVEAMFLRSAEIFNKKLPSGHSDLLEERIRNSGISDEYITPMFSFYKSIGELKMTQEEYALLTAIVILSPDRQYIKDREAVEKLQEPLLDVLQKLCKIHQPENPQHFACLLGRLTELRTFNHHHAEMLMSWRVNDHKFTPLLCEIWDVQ
Description: as §1, §2

CC1(C)CCC2(C(=O)O)CCC3(C)C(C(OC(=O)CCC(NC(=O)OC(C)(C)C)C(=O)OC(C)(C)C)CC4C5(C)CCC(O)C(C)(C)C5CCC43C)C2C1 [Compound 10b, 3β-hydroxy-12β-(4′-((tert-butoxycarbonyl)amide)-5′-(tert-butoxy)-L-glutamte)oxy-13H-olean-28-oic acid]
content of protein TGFβ1 [1]: reduced | content of protein TIMP1 [1]: reduced | content of protein a-SMA [1]: reduced | antagonistic effects against LXRα [2]: 10–20% | antagonistic effects against PPARα [3]: 10–20% | antagonistic effects against FXR [4]: > 90%
